# B1: PKCα phosphorylated rAFAP-110: rAFAP-110 phosphorylated with recombinant PKCα (protein, UniProt Q90738 1-729, looked up)
# Actin filament-associated …: MEELIVELRLFLELLDHEYLTSTVREKKAVITNILLRIQSSKGFEIKEHVQKPEVANSLPAPPQMPLPEIPQQWLPPDNGPPPLPTSSLPEGYYEEAVPVSPGKAPEYITSNYDSDAMSSSYESYDEEEEDGKGKKMRHQWPSEEASMDLVKDAKICAFLLRKKRFGQWTKLLCVIKENKLLCYKSSKDQQPQMELLLNDCSITYIPKDSKKKKHELKISHQGADALVLAVQSKEQAEQWLKVIKDVCSNCTGTVDSDGPLSSSPVHKTELEKKLSSERPSSDGEGAVENGITTVCNGKEQVKRKKSSKTEAKGTVTKVTGKKITKIIGLGKKKPSTDEQTSSAEEDVPTCGYLNVLSNNRWRERWCRVKDNKLIFHKDRTDLKTHIVSIPLRGCEVIPGLDSKHPLTFRLLRNGQEVAVLEASSSEDMGRWIGMLLAETGSSTDPGALHYDYIDVEMTASVIQAAKQTFCFMNRRVISTNPYRGSTANGYACPSGMALHYDDVPCINGSFKGKKPPATANGITGKVRTLNSQPKKPESVSCVKRTASNAEQYKYGKNRVEAVAKRLQSKEEELLKRKEALRNRLAQLRKERKDLRAAIEVNAGRKTQVILEDKLKKLEEECKTKEAERVNLELELTEVKESLKKALAGGITLGLAIEPKSGTSSPQSPIFKHRTLENSPISSCDTSDTECSIPVNSAAALKRPPSSNNSPCRGHVLRKAKEWEMKNGT
# modifications: PKCalpha phosphorylated
# notes: rAFAP-110 phosphorylated with recombinant PKCα
# Key:
# [1] = tested on: AFAP-110 in C3H10T1/2 cells; test: Phosphoamino acid analysis of AFAP-110 after PMA treatment; format: cell-based; details: 100 nM PMA, 15 min; relative to 4α-PDD treatment; densitometry
# Protocol: (1, PKCα (0.5 μg); 2, PKCα (0.5 μg)+rAFAP-110 (10 μg); 3, rAFAP-110 (10 μg)). Data are representative of three experiments. […] C3H10T1/2 cells were serum-starved in phosphate-free media supplemented with radiolabeled ^32P-orthophosphate overnight and treated with 100 nM PMA, 100 nM 4α-PDD, or DMSO, the vehicle used. Cells were lysed after 15 min and AFAP-110 was immunoprecipitated using the antibody F1. Radiolabeled AFAP-110 was isolated by SDS-PAGE and subjected to phosphoamino acid analysis.
# To test whether AFAP-110 could be phosphorylated in cells in response to PKC activation in vivo, serum-starved C3H10T1/2 fibroblasts labeled with ^32P-orthophosphate were stimulated with 100 nM PMA for 15 min to activate PKC. Cos-1 cells were maintained and transfected as previously described (Guappone and Flynn, 1997, supra). C3H10T1/2 cells were cultured as previously described (Qian et al., 2000, supra). Transient transfections of C3H10T1/2 cells were carried out using SuperFect (QIAGEN, Santa Clarita, Calif.) as previously described (Qian et al., 2000, supra).
# Phosphoamino Acid Analysis C3H10T1/2 cells were grown to 60% confluence in 100-mm culture dishes, serum starved overnight, and then stimulated with 100 nM PMA or 100 nM 4α-PDD for 15 min. […] Relative intensity compared with background of radiation from spots was quantitated with ImageQuant software (Molecular Dynamics, Sunnyvale, Calif.).
# C3H10T1/2 cells = test: Immunofluorescence of actin structures after PMA treatment; format: cell-based
# Protocol: For PKC activation with PMA, C3H10T1/2 cells were transfected with plasmids encoding AFAP-110. Twenty-four hours after transfections, the cells were serum starved overnight. PMA at 100 nM was used to activate PKC for 60 min. Cells were fixed and permeablized as previously described (Qian et al., 1998, supra). After washing, cells were labeled with BODIPY 650/665 phalloidin (Molecular Probes, Eugene, Oreg.) and 4C3 antibody for 20 min. Cells were washed again and then labeled with ALEXA 488 (Molecular Probes) for 25 min. Cells were washed and mounted on slides with Fluoromount (Fisher, Pittsburgh, Pa.). For serum induction experiments, C3H10T1/2 cells were serum starved overnight, and then serum-complete media was added. Cells on coverslips were washed and fixed at 15-min time points >2 h. Polyclonal antibody F1 and TRITC-labeled anti-rabbit secondary antibody were used to visualize endogenous AFAP-110, with washings as above. BODIPY 650/665 phalloidin was used to visualize actin. A Zeiss LSM 510 microscope (Thornwood, N.Y.) was used to gather images, which were recolored from grayscale. Scale bars were generated and inserted by LSM 510 software (Carl Zeiss, Thornwood, N.Y.).
# Immunofluorescence labeling and imaging was carried out as described. C3H10T1/2 cells expressing AFAP-110 were treated with either 100 nM PMA (A1-A3) or 100 nM 4α-PDD (A4-A6) for 15 min after overnight serum starvation. AFAP-110 is represented in red (A1 and A4), whereas actin is represented in green (A2 and A5). (A3 and A6) Overlap images of AFAP-110 and actin. Arrows indicate colocalization of AFAP-110 with dynamic actin structures: white arrows, filopodia; gray arrows, lamellipodia; black arrows, actin filaments in the top panel and disrupted actin filaments/rosettes in the bottom panel. […] Immunofluorescence labeling and imaging were carried out as described in Experimental Procedures. C3H10T1/2 cells coexpressing GFP-AFAP-110 (B1) and myristoylated, Flag-tagged PKC were labeled to show Flag-tagged PKC (B2) and actin (B3). Arrows indicate colocalization of AFAP-110 with dynamic actin structures: white arrows label filopodia and black arrows label lamellipodia. […] Immunofluorescence labeling and imaging were carried out as described. C3H10T1/2 cells were transfected with pCMV-GFP-AFAP-110 (C1-C6) and pCMV-GFP-AFAP^Δ180-226 (C7-C9). PMA at 100 nM was used to stimulate the cells for 1 h. C1, C4, and C7; green GFP fusion protein images; C2, C5, and C8; X actin images; C3, C6, and C9, overlap images of GFP fusion protein and actin images.
# actin filaments [2] = test: Confocal microscopy of rhodamine-phalloidin-labeled actin filaments; format: biochemical; details: 0.5 μM protein, 2 μM actin filaments; FIG. 13B
# Excerpt: (§1) Binding constants were derived from the sedimentation of rAFAP-110 by actin. Accordingly, rAFAP-110 in the pellet and supernatant correspond to the bound and free rAFAP-110, respectively. The sum of densities of rAFAP-110 bands in the supernatant and pellet corresponds to the total mass of rAFAP-110 in the sample. The data representing the bound rAFAP-110 as a function of free rAFAP-110 were fit by nonlinear least squares to both the Langmuir (B=BMAX/(1+Kd/F)) and […] 2 μM F-actin filaments and different concentrations of rAFAP-110 in 5 mM MgCl2, 1 mM EGTA, 2 mM ATP, and 50 mM KCl at 20,800×g for 30 min at 4° C. After the centrifugation, both supernatant and pellets were analyzed by SDS-PAGE gel. Confocal microscopy assays were performed as described (Ishikawa et al., 1998, J. Biol. Chem., 273:26991-26997). Briefly, 2 μM F-actin containing 10% rhodamine-phalloidin-labeled F-actin were mixed with different concentrations of rAFAP-110 or other purified recombinant proteins in 5 mM MgCl2, 1 mM EGTA, 2 mM ATP, and 50 mM KCl at RT for 30 min. After the incubation, the reactions were applied between glass slides and coverslips and observed under confocal microscopy (Zeiss, Oberkochen, Germany). Samples for negative staining were adsorbed to grids coated with nitrocellulose and stabilized with carbon (Ernest F. Fullam, Latham, N.Y.). Unbound protein was removed by successive washes with buffer and water before staining with 1% uranylacetate (Cooper and Pollard, 1982, Methods Enzymol., 85(PtB), 182-210; Pollard and Cooper, 1982, Methods Enzymol., 85(PtB), 211-233).
# To further test AFAP-110's capability to cross-link actin filaments, we analyzed rhodamine-phalloidin-labeled actin filaments for cross-linking by confocal microscopy. In FIG. 9A, purified rAFAP-110 or rAFAP-110^Δcterm were incubated with rhodamine-phalloidin-labeled actin filaments. […] 1, actin filaments only; 2, rAFAP-110 with actin filaments; 3, rAFAP-110^Δcterm with actin filaments. FIG. 9B presents confocal microscopy images. Different concentrations of α-actinin (top two panels, low=0.0625 μM and high=1.25 μM) and rAFAP-110 (bottom two panels, low=0.106 μM and high=2.1 μM) were incubated with rhodamine-phalloidin-labeled actin filaments. […] Actin filaments labeled with rhodamine-phalloidin appeared uniformly fluorescent in the absence of an actin binding protein (FIG. 9A1). […] Electron microscopy was used to confirm rAFAP-110's ability to cross-link actin filaments.
# actin filaments [3] = test: Low-speed cosedimentation assay (20,800×g), actin filament cross-linking; format: biochemical; details: 0.5 μM protein, 2 μM actin filaments; FIG. 13A
# Excerpt: as §1
# Actin filaments are unable to efficiently pellet at 20,800×g unless cross-linked to form heavier particles (either isotropic networked or bundled actin filaments; Cooper and Pollard, 1982, supra; Pollard and Cooper, 1982, supra; Meyer et al., 1990, J. Cell. Biol. 110:2013-2024; Wachsstock et al., 1993, Biophys. J., 65: 205-214; Rybakova et al., 1996, J. Cell. Biol., 135:661-672). […] The purified recombinant proteins were incubated with actin filaments and then were centrifuged at 20,800×g. Both supernatants (S) and pellets (P) were applied to SDS-PAGE gel, followed by Coomassie staining. 1, rAFAP-110 with actin filaments; 2, rAFAP-110^Δcterm with actin filaments; 3, rAFAP-110 only; 4, rAFAP-110^Δcterm only; 5, actin filaments only. FIG. 8B is a graph of cross-linked actin filaments versus free rAFAP-110. rAFAP-110 at 0.05,0.11,0.21,0.43, 0.86, and 2.14 μM was incubated with the 2 μM concentration of G-actin polymerized into actin filaments. After the incubation, the reactions were centrifuged at 20,800×g. Both supernatants and pellets were applied to SDS-PAGE gel, followed by the Western blot analysis to detect rAFAP-110 and Coomassie blue staining to detect actin, respectively. The data of cross-linked actin filaments and free rAFA-110 were gathered by scanning densitometry of SDS-PAGE gel analysis.
# [4] = after treatment with 100 nM PMA
Molecule,increase in phosphoserine of AFAP-110 [1] [fold],increase in phosphothreonine of AFAP-110 [1] [fold],time in which the changes occur (C3H10T1/2 cells; 100 nM PMA) [min],"actin structures upon PMA treatment (C3H10T1/2 cells; 100 nM PMA, serum-starved cells expressing AFAP-110)",time by which cells completely reverted to quiescent phenotype (C3H10T1/2 cells; [4]) [h],time by which changes largely revert (C3H10T1/2 cells; [4]) [h],confocal fluorescence pattern of actin filaments (actin filaments [2]),ability to coprecipitate actin filaments compared with rAFAP-110 (actin filaments [3])
CCCCCCCCCCCCCC(=O)O[C@@H]1[C@@H](C)[C@@]2(O)[C@@H](C=C(CO)C[C@]3(O)C(=O)C(C)=C[C@@H]23)[C@@H]2C(C)(C)[C@]12OC(C)=O [PMA],3.9,5.7,≤ 15,"Lamellipodia, filopodia, and rosettes appear",≤ 6,≤ 2,–,–
B1,–,–,–,–,–,–,large aggregates of fluorescence,increased the ability of rAFAP-110 to coprecipitate actin filaments

# Reference: US20030104443A1, “AFAP sequences, polypeptides, antibodies and methods” (University of West Virginia, priority 2001, published 2003)
